# Patent US12091425B2 (AMGEN INC., priority 2016, dated 2024)
# What was measured:
# [1] = test system: OPM-2 human multiple myeloma cell line; assay: Cell Viability Assay (OPM-2 10 FBS); type: cell-based; conditions: Homo sapiens, OPM-2, 16 h, OPM-2 cells, 16 h, CellTiter-Glo
# Procedure, shortened: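 ATP-based luminescence (CellTiter-Glo) measured after a 16 h compound treatment of OPM-2 cells seeded at 3000 cells/well in 10% FBS medium. IC50 values derived by 4-parameter logistic fitting of serial dilutions.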
# [2] = target: T1, Mcl-1/Bim interaction, recombinant human Mcl-1 (171-327) (Homo sapiens, UniProt Q07820); assay: Cell free Mcl-1: Bim Affinity Assay (Mcl-1 HTRF); type: binding; conditions: TR-FRET, 0.1 nM Mcl-1 (171-327), 0.05 nM biotin-Bim (51-76)
# T1 construct: made in house
# Procedure, shortened: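 Biotin-Bim(51-76) peptide, TR-FRET readout, overnight incubation; IC50 from duplicate competition curves, 4-parameter fit.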
# T1 sequence (Q07820 171-327): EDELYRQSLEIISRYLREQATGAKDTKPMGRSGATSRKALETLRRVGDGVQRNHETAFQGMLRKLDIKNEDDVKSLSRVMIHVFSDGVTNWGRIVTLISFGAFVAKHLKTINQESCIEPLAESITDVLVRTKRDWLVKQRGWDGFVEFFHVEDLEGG
Compound,IC50 [1] [nM],IC50 [2] [nM]
"CCOC(=O)CO[C@@H]1/C=C/CCCS(=O)(=O)NC(=O)c2ccc3c(c2)N(C[C@@H]2CC[C@H]21)C[C@@]1(CCCc2cc(Cl)ccc21)CO3 [Example 217, ethyl(((1S,3′R,6′R,7′R,8′E)-6-chloro-13′,13′-dioxido-15′-oxo-3,4-dihydro-2H-spiro[naphthalene-1,22′-[20]oxa[13]thia[1,14]diazatetracyclo[14.7.2.0^3,6.0^19,24]pentacosa [8,16,18,24]tetraen]-7′-yl)oxy)acetate]",2660,3.81
"O=C(O)CO[C@@H]1/C=C/CCCS(=O)(=O)NC(=O)c2ccc3c(c2)N(C[C@@H]2CC[C@H]21)C[C@@]1(CCCc2cc(Cl)ccc21)CO3 [Example 218, (((1S,3′R,6′R,7′R,8′E)-6-chloro-13′,13′-dioxido-15′-oxo-3,4-dihydro-2H-spiro[naphthalene-1,22′-[20]oxa[13]thia[1,14]diazatetracyclo[14.7.2.0^3,6.0^19,24]pentacosa [8,16,18,24]tetraen]-7′-yl)oxy)acetic acid]",3670,0.216
"CN(C)S(=O)(=O)CCO[C@@H]1/C=C/CCCS(=O)(=O)NC(=O)c2ccc3c(c2)N(C[C@@H]2CC[C@H]21)C[C@@]1(CCCc2cc(Cl)ccc21)CO3 [Example 219, 2-(((1S,3′R,6′R,7′R,8′E)-6-chloro-13′,13′-dioxido-15′-oxo-3,4-dihydro-2H-spiro[naphthalene-1,22′-[20]oxa[13]thia[1,14]diazatetracyclo[14.7.2.0^3,6.0^19,24]pentacosa [8,16,18,24]tetraen]-7′-yl)oxy)-N,N-dimethylethanesulfonamide]",1830,2.4
"O=C1NS(=O)(=O)CCCCCC[C@@H](O)[C@@H]2CC[C@H]2CN2C[C@@]3(CCCc4cc(Cl)ccc43)COc3ccc1cc32 [Example 228, (1S,3′R,6′R,7′R)-6-chloro-7′-hydroxy-3,4-dihydro-2H,16′H-spiro[naphthalene-1,23′-[21]oxa[14]thia[1,15]diazatetracyclo[15.7.2.0^3,6.0^20,25]hexacosa[17,19,25]trien]-16′-one 14′,14′-dioxide]",23100,13.1
"CO[C@@H]1/C=C/CCCCS(=O)(=O)NC(=O)c2ccc3c(c2)N(C[C@@H]2CC[C@H]21)C[C@@]1(CCCc2cc(Cl)ccc21)CO3 [Example 229, (1S,3′R,6′R,7′R,8′E)-6-chloro-7′-methoxy-3,4-dihydro-2H,16′H-spiro[naphthalene-1,23′-[21]oxa[14]thia[1,15]diazatetracyclo[15.7.2.0^3,6.0^20,25]hexacosa[8,17,19,25]tetraen]-16′-one 14′,14′-dioxide]",1720,1.62
"C[C@@H]1[C@@H](C)C/C=C/[C@H](OCC(=O)O)[C@@H]2CC[C@H]2CN2C[C@@]3(CCCc4cc(Cl)ccc43)COc3ccc(cc32)C(=O)NS1(=O)=O [Example 292, (((1S,3′R,6′R,7′S,8′E,11′S,12′R)-6-chloro-11′,12′-dimethyl-13′,13′-dioxido-15′-oxo-3,4-dihydro-2H-spiro[naphthalene-1,22′-[20]oxa[13]thia[1,14]diazatetracyclo[14.7.2.0^3,6.0^19,24]pentacosa [8,16,18,24]tetraen]-7′-yl)oxy)acetic acid]",1110,0.0929
"C[C@@H]1[C@@H](C)C/C=C/[C@H](OCC(=O)O)[C@@H]2CC[C@H]2CN2C[C@@]3(CCCc4cc(Cl)ccc43)COc3cc(CC(=O)O)c(cc32)C(=O)NS1(=O)=O [Example 293, ((1S,3′R,6′R,7′S,8′E,11′S,12′R)-7′-(carboxymethoxy)-6-chloro-11′,12′-dimethyl-13′,13′-dioxido-15′-oxo-3,4-dihydro-2H-spiro[naphthalene-1,22′-[20]oxa[13]thia[1,14]diazatetracyclo[14.7.2.0^3,6.0^19,24]pentacosa [8,16,18,24]tetraen]-17′-yl)acetic acid]",27600,0.36

# The remaining lines, values ahead:
IC50 [1] [nM],IC50 [2] [nM],Compound
8740,1.32,"Cn1cnc(CO[C@@H]2/C=C/CCCS(=O)(=O)NC(=O)c3ccc4c(c3)N(C[C@@H]3CC[C@H]32)C[C@@]2(CCCc3cc(Cl)ccc32)CO4)n1 [Example 215, (1S,3′R,6′R,7′R,8′E)-6-chloro-7′-((1-methyl-1H-1,2,4-triazol-3-yl)methoxy)-3,4-dihydro-2H,15′H-spiro[naphthalene-1,22′-[20]oxa[13]thia[1,14]diazatetracyclo[14.7.2.0^3,6.0^19,24]pentacosa [8,16,18,24]tetraen]-15′-one 13′,13′-dioxide]"
26200,9.77,"O=C1NS(=O)(=O)CCC/C=C/[C@@H](OCc2nccs2)[C@@H]2CC[C@H]2CN2C[C@@]3(CCCc4cc(Cl)ccc43)COc3ccc1cc32 [Example 216, (1S,3′R,6′R,7′R,8′E)-6-chloro-7′-(1,3-thiazol-2-ylmethoxy)-3,4-dihydro-2H,15′H-spiro[naphthalene-1,22′-[20]oxa[13]thia[1,14]diazatetracyclo[14.7.2.0^3,6.0^19,24]pentacosa [8,16,18,24]tetraen]-15′-one 13′,13′-dioxide]"
2660,1.99,"O=C1NS(=O)(=O)CCC/C=C/[C@@H](OCCO)[C@@H]2CC[C@H]2CN2C[C@@]3(CCCc4cc(Cl)ccc43)COc3ccc1cc32 [Example 220, (1S,3′R,6′R,7′R,8′E)-6-chloro-7′-(2-hydroxyethoxy)-3,4-dihydro-2H,15′H-spiro[naphthalene-1,22′-[20]oxa[13]thia[1,14]diazatetracyclo[14.7.2.0^3,6.0^19,24]pentacosa [8,16,18,24]tetraen]-15′-one 13′,13′-dioxide]"
30800,9.08,"O=C1NS(=O)(=O)CCCC[C@@H](O)[C@@H]2CC[C@H]2CN2C[C@@]3(CCCc4cc(Cl)ccc43)COc3ccc1cc32 [Example 222, (1S,3′R,6′R,7′R)-6-chloro-7′-hydroxy-3,4-dihydro-2H,14′H-spiro[naphthalene-1,21′-[19]oxa[12]thia[1,13]diazatetracyclo[13.7.2.0^3,6.0^18,23]tetracosa [15,17,23]trien]-14′-one 12′,12′-dioxide]"
410,0.255,"CNC(=O)CO[C@H]1/C=C/C[C@H](C)[C@@H](C)S(=O)(=O)NC(=O)c2ccc3c(c2)N(C[C@@H]2CC[C@H]21)C[C@@]1(CCCc2cc(Cl)ccc21)CO3 [Example 294, 2-(((1S,3′R,6′R,7′S,8′E,11′S,12′R)-6-chloro-11′,12′-dimethyl-13′,13′-dioxido-15′-oxo-3,4-dihydro-2H-spiro[naphthalene-1,22′-[20]oxa[13]thia[1,14]diazatetracyclo[14.7.2.0^3,6.0^19,24]pentacosa [8,16,18,24]tetraen]-7′-yl)oxy)-N-methylacetamide]"
151,0.19,"C[C@@H]1[C@@H](C)C/C=C/[C@H](OCC(=O)N(C)C)[C@@H]2CC[C@H]2CN2C[C@@]3(CCCc4cc(Cl)ccc43)COc3ccc(cc32)C(=O)NS1(=O)=O [Example 295, 2-(((1S,3′R,6′R,7′S,8′E,11′S,12′R)-6-chloro-11′,12′-dimethyl-13′,13′-dioxido-15′-oxo-3,4-dihydro-2H-spiro[naphthalene-1,22′-[20]oxa[13]thia[1,14]diazatetracyclo[14.7.2.0^3,6.0^19,24]pentacosa [8,16,18,24]tetraen]-7′-yl)oxy)-N,N-dimethylacetamide]"
